Test results published in article PMC6053404, “Enzymatic one-step ring contraction for quinolone biosynthesis” (Nature Communications, 2018).

Assays:
PngL = test system: T1, PngL; experiment: steady-state kinetics; type: biochemical, Penicillium sp. FKI-2140; conditions: accurate parameters prevented by difficult purification; conditions in Supplementary Methods
T1 construct: hexahistidine-tagged, recombinant from Escherichia coli; difficult to purify

AsqI = target: T2, AsqI (Aspergillus nidulans, UniProt C8VJQ3); experiment: LC-MS initial rate of […]′-methoxyviridicatin […] formation; type: biochemical; conditions: MES Na 100 mM, NaCl 100 mM, pH 5.5, 30 °C; substrate 0.05-0.8 mM, Km extrapolated above tested range
T2 construct: hexahistidine-tagged, recombinant from Escherichia coli; plasmid pKW18244; zinc-dependent
T2 sequence (C8VJQ3 whole entry): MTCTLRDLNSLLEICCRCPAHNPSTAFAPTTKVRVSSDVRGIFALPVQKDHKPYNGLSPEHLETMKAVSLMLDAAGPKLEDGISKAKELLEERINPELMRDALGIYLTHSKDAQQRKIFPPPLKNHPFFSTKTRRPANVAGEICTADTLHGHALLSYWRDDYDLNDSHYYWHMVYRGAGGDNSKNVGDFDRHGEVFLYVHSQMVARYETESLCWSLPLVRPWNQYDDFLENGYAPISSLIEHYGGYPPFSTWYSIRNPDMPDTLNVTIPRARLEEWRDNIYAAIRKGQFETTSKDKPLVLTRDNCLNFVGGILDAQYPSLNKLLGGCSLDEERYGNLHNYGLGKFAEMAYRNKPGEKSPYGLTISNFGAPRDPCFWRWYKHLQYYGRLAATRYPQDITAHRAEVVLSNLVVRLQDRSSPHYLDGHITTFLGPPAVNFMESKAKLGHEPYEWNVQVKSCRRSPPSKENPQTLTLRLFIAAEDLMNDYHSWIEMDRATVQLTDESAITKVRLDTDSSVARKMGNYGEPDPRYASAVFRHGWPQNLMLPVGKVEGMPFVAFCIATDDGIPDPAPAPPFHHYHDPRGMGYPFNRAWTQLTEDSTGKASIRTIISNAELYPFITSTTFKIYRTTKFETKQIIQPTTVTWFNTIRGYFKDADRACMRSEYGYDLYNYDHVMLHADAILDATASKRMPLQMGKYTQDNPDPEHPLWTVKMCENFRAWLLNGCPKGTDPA

`COc1ccc(C2OC23C(=O)Nc2ccccc2C(=O)N3C)cc1` (single isomer, unassigned; (-)) [compound 2, (–)-4′-methoxycyclopenin] was tested, and the Km (PngL) was 350 ± 30 µM and the Km (AsqI) was 2.86 ± 0.52 mM.
